Experimental findings from PubChem BioAssay (NCI) are described below.

Molecules are shown by their SMILES. Several values for one entry are separate records, joined by “and”; a condition that tells them apart may be missing. Identical values can stand only once.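 Exposure lasted 48 hours, with cells grown in 96-well plates and compounds tested at five concentrations. At the GI50, growth is halved. TGI denotes the concentration required for complete inhibition of growth.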

Some test systems named below: A549 NSCLC; CAKI-1 renal; CCRF-CEM leukemia; KM12 colon; MCF7 breast; PC-3 prostate; SF-295 CNS; SK-OV-3 ovarian; UACC-62 melanoma; UO-31 renal.
What all share (test): NCI-60 cell line screen, 48 h

Take `COC1OCC(OS(=O)(=O)c2ccc(C)cc2)C(OC(=O)c2ccccc2)C1OC(=O)c1ccccc1` (centres undefined): the GI50 was 6.14 µM in the assay on A549 NSCLC; 4.21 µM with CAKI-1 renal; 4.74 µM with CCRF-CEM leukemia; 4.04 µM with KM12 colon; 3.01 µM with MCF7 breast; 9.01 µM with PC-3 prostate. Further, the GI50 in the assay on SF-295 CNS was 3.63 µM; in the assay on SK-OV-3 ovarian, 21.7 µM; in the assay on UACC-62 melanoma, 3.48 µM; in the assay with UO-31 renal it was more than 100 µM. Besides, the TGI in the assay on A549 NSCLC, in the assay with CAKI-1 renal, in the assay on CCRF-CEM leukemia, in the assay with KM12 colon, in the assay on MCF7 breast and in the assay with PC-3 prostate was more than 100 µM throughout. The TGI with SF-295 CNS, in the assay on SK-OV-3 ovarian, in the assay on UACC-62 melanoma and in the assay with UO-31 renal was more than 100 µM each time.

Regarding `O=C(CCc1nnc(-c2c(Cl)cccc2Cl)o1)c1nc2ccccc2[nH]1`, the GI50 with A549 NSCLC is 10.4 µM; in the assay with CAKI-1 renal it was 3.49 µM; with CCRF-CEM leukemia, 4.86 µM; in the assay with KM12 colon it was 3.16 µM; in the assay with MCF7 breast, 4.57 µM; in the assay on PC-3 prostate, 3.71 µM. The GI50 was 5.98 µM in the assay with SF-295 CNS, 4.6 µM with SK-OV-3 ovarian, 3.34 µM with UACC-62 melanoma and 6.71 µM in the assay with UO-31 renal. Moreover, the TGI in the assay with A549 NSCLC was more than 100 µM; in the assay on CAKI-1 renal, 41.1 µM; in the assay with CCRF-CEM leukemia, 66 µM; in the assay on KM12 colon, 11 µM; with MCF7 breast, more than 100 µM; in the assay on PC-3 prostate it was more than 100 µM. The TGI in the assay on SF-295 CNS turned out to be 42.9 µM; in the assay on SK-OV-3 ovarian it was 30.5 µM; with UACC-62 melanoma, 27.8 µM; in the assay with UO-31 renal, 32.9 µM.

Consider `CN(C)c1ccc(/C=C(\C#N)c2cc3ccccc3n2C)cc1`, for which the GI50 in the assay with A549 NSCLC was 0.226 µM; in the assay on CAKI-1 renal it was 0.0856 µM; in the assay on CCRF-CEM leukemia, 0.244 µM; in the assay on KM12 colon it was 0.211 µM; in the assay with MCF7 breast it was 0.0379 µM; in the assay with PC-3 prostate it was 0.204 µM. Also, the GI50 in the assay with SF-295 CNS was 0.0787 µM; in the assay with SK-OV-3 ovarian, 0.532 µM; in the assay with UACC-62 melanoma, 0.103 µM; with UO-31 renal, 0.82 µM. Also, the TGI in the assay with A549 NSCLC, in the assay with CAKI-1 renal, in the assay with CCRF-CEM leukemia, in the assay with KM12 colon, in the assay on MCF7 breast and in the assay on PC-3 prostate was more than 100 µM throughout. For the same molecule, the TGI with SK-OV-3 ovarian, in the assay on UACC-62 melanoma and in the assay on UO-31 renal was more than 100 µM in each case.

For `CC1(C)CC(=O)C2=C(C1)NC(SSC1=C(C#N)C(c3ccc(Br)cc3)C3=C(CC(C)(C)CC3=O)N1)=C(C#N)C2c1ccc(Br)cc1` (centres undefined), the GI50 in the assay with A549 NSCLC is more than 150 µg/mL; with CAKI-1 renal, more than 150 µg/mL; with CCRF-CEM leukemia, 34.3 µg/mL; with KM12 colon, more than 150 µg/mL; with MCF7 breast it was more than 150 µg/mL; with PC-3 prostate it was 91.4 µg/mL. Besides, the GI50 in the assay on SF-295 CNS was more than 150 µg/mL; in the assay on SK-OV-3 ovarian it was more than 150 µg/mL; in the assay on UACC-62 melanoma, 122 µg/mL; in the assay with UO-31 renal it was 76.3 µg/mL. Moreover, the TGI in the assay on A549 NSCLC is > 100 µM and 150 µg/mL; in the assay on CAKI-1 renal, > 100 µM and 150 µg/mL; in the assay on CCRF-CEM leukemia it was > 100 µM and 107 µg/mL; in the assay with KM12 colon, > 100 µM and 150 µg/mL; in the assay with MCF7 breast, 150 µg/mL; in the assay on PC-3 prostate, > 100 µM and 150 µg/mL. Further, the TGI was > 100 µM and 150 µg/mL in the assay on SF-295 CNS; > 100 µM and 150 µg/mL in the assay on SK-OV-3 ovarian; > 100 µM and 150 µg/mL with UACC-62 melanoma; > 100 µM and 150 µg/mL in the assay with UO-31 renal.

For `C=C1C(=O)O[C@H]2[C@H]1CC/C(COC(=O)/C=C\C(=O)NCc1ccc(Cn3c(=O)sn(-c4ccc(OC)cc4)c3=O)cc1)=C\CC[C@@]1(C)O[C@@H]21`, the GI50 in the assay with A549 NSCLC is 0.938 µM; in the assay on CAKI-1 renal it was 0.291 µM; with CCRF-CEM leukemia, 0.174 µM; in the assay with KM12 colon, 0.884 µM; in the assay with MCF7 breast it was 0.292 µM; in the assay on PC-3 prostate it was 0.542 µM. Also, the GI50 in the assay on SF-295 CNS was 3.84 µM; in the assay on SK-OV-3 ovarian, 4.77 µM; in the assay on UACC-62 melanoma, 0.7 µM; in the assay on UO-31 renal it was 0.408 µM. Further, the TGI in the assay with A549 NSCLC came to 2.88 µM; with CAKI-1 renal, 0.997 µM; in the assay on CCRF-CEM leukemia, 4.27 µM; with KM12 colon, 1.81 µM; with MCF7 breast, 1.17 µM; with PC-3 prostate, 1.32 µM. Besides, the TGI with SF-295 CNS was found to be 10.1 µM; with SK-OV-3 ovarian, 11.6 µM; with UACC-62 melanoma, 1.41 µM; in the assay with UO-31 renal, 1.06 µM.

Regarding `Cc1ccc(Cl)cc1Nc1nc(C(F)(F)F)ccc1C(=O)N/N=C/c1c(Cl)cccc1Cl`, the GI50 was 1.5 µM with A549 NSCLC; 0.495 µM in the assay on CAKI-1 renal; 0.289 µM with CCRF-CEM leukemia; 0.542 µM with KM12 colon; 1.74 µM in the assay on MCF7 breast; 0.554 µM with PC-3 prostate. For the same molecule, the GI50 with SF-295 CNS is 0.556 µM; with SK-OV-3 ovarian, 0.899 µM; in the assay with UACC-62 melanoma, 0.925 µM; in the assay with UO-31 renal, 1.53 µM. Further, the TGI is more than 100 µM in the assay with A549 NSCLC; 3.49 µM in the assay on CAKI-1 renal; 1.56 µM with CCRF-CEM leukemia; 9.08 µM in the assay on KM12 colon; more than 38.1 µM in the assay on MCF7 breast; more than 34.3 µM in the assay on PC-3 prostate. In addition, the TGI in the assay on SF-295 CNS stood at 3.61 µM; with SK-OV-3 ovarian it was 4.76 µM; in the assay with UACC-62 melanoma, 4.02 µM; in the assay on UO-31 renal it was 5.13 µM.

Regarding `CCCN(CCC)c1ccc(C=O)cc1`, the GI50 in the assay on A549 NSCLC is more than 100 µM; in the assay with CAKI-1 renal it was 53.2 µM; in the assay with CCRF-CEM leukemia, 30.2 µM; in the assay on KM12 colon, more than 70.8 µM; in the assay on MCF7 breast, 36 µM; in the assay on PC-3 prostate, 38.1 µM. Besides, the GI50 in the assay on SF-295 CNS was 34.2 µM; in the assay on SK-OV-3 ovarian it was more than 100 µM; with UACC-62 melanoma it was 42.8 µM; with UO-31 renal, 36.2 µM. The TGI with A549 NSCLC, in the assay with CAKI-1 renal, in the assay on CCRF-CEM leukemia, in the assay on KM12 colon, with MCF7 breast and in the assay on PC-3 prostate was more than 100 µM throughout. Moreover, the TGI with SF-295 CNS, in the assay on SK-OV-3 ovarian, in the assay with UACC-62 melanoma and in the assay with UO-31 renal was more than 100 µM in each case.

In the case of `O=C(O)CN(CC(=O)O)Cc1cc2c(cc1O)Oc1cc(O)c(CN(CC(=O)O)CC(=O)O)cc1C21OC(=O)c2ccccc21`, the TGI in the assay on A549 NSCLC, in the assay with CAKI-1 renal, in the assay on CCRF-CEM leukemia, in the assay on KM12 colon, in the assay on MCF7 breast and in the assay with PC-3 prostate was more than 100 µM in each case. For the same molecule, the TGI in the assay on SF-295 CNS, in the assay on SK-OV-3 ovarian, in the assay with UACC-62 melanoma and in the assay with UO-31 renal was more than 100 µM throughout.

As to `CCOC(=O)C1=C(N)Oc2c(sc3c(C)cccc23)C1c1ccc(Cl)cc1` (centres undefined), the GI50 was 3.9 µM in the assay with A549 NSCLC; 1.2 µM in the assay with CAKI-1 renal; 3.65 µM with CCRF-CEM leukemia; 1.62 µM in the assay on KM12 colon; 0.655 µM in the assay with MCF7 breast; 2.53 µM with PC-3 prostate. Besides, the GI50 in the assay with SF-295 CNS was 1.89 µM; in the assay with SK-OV-3 ovarian it was 7.97 µM; in the assay with UACC-62 melanoma, 1.08 µM; in the assay with UO-31 renal, 3.03 µM. For the same molecule, the TGI with A549 NSCLC stood at 18.8 µM; in the assay with CAKI-1 renal it was 17.3 µM; with CCRF-CEM leukemia, 24.1 µM; in the assay with KM12 colon, 13.3 µM; in the assay with MCF7 breast, 10.9 µM; in the assay on PC-3 prostate it was 13.5 µM. In addition, the TGI is 4.26 µM with SF-295 CNS, 30.1 µM with SK-OV-3 ovarian, 13.3 µM in the assay on UACC-62 melanoma and 16.7 µM in the assay with UO-31 renal.

Take `O=C(Nc1ccc(Cl)c(Cl)c1)C(=O)C(C1OC(=O)c2ccccc21)[N+](=O)[O-]` (centres undefined): the TGI in the assay with A549 NSCLC, in the assay on CAKI-1 renal, with CCRF-CEM leukemia, in the assay with KM12 colon, in the assay with MCF7 breast and in the assay on PC-3 prostate was more than 100 µM each time. Besides, the TGI in the assay with SF-295 CNS, in the assay on SK-OV-3 ovarian, in the assay with UACC-62 melanoma and with UO-31 renal was more than 100 µM throughout.

For `C[N+](C)(C)CCC(=O)N1C/C(=C\c2ccccc2)C(=O)/C(=C/c2ccccc2)C1`, the TGI in the assay on A549 NSCLC came to 32.1 µM; with CAKI-1 renal, 18.2 µM; with CCRF-CEM leukemia, 7.05 µM; in the assay on KM12 colon, 3.11 µM; in the assay with MCF7 breast it was 3.31 µM; with PC-3 prostate, 6.97 µM. For the same molecule, the TGI was found to be 11.9 µM in the assay on SF-295 CNS, 46.8 µM with SK-OV-3 ovarian, 10.3 µM in the assay with UACC-62 melanoma and 33 µM with UO-31 renal.

In the case of `C=CCCC(O)c1ccc(C(O)CCCCCCCCCCCC)o1` (centres undefined), the GI50 with A549 NSCLC was 17.7 µM; with CAKI-1 renal, 18.1 µM; with CCRF-CEM leukemia, 18.4 µM; in the assay on KM12 colon it was 21.7 µM; with MCF7 breast, 82.2 µM; in the assay with PC-3 prostate, 22.8 µM. Besides, the GI50 with SF-295 CNS was 36.7 µM; in the assay with SK-OV-3 ovarian it was more than 100 µM; with UACC-62 melanoma, 17.3 µM; in the assay with UO-31 renal, 18.7 µM. Besides, the TGI with A549 NSCLC is 39.2 µM; with CAKI-1 renal, 34.8 µM; in the assay with CCRF-CEM leukemia, more than 100 µM; in the assay with KM12 colon, 42.8 µM; in the assay with MCF7 breast it was more than 100 µM; in the assay on PC-3 prostate it was 47.8 µM. The TGI in the assay with SF-295 CNS was more than 100 µM; with SK-OV-3 ovarian, more than 100 µM; with UACC-62 melanoma it was 32.8 µM; with UO-31 renal it was 41.4 µM.
